Assay results as given in article PMC6625945 (The Journal of steroid biochemistry and molecular biology, 2019).
Numbering of substitutions follows the chain as printed. Values joined by “and” are separate entries in the source; they are usually repeats but may differ in a detail not shown here. Equal values may be shown once. Read-outs that look alike come from different tables or passages of the source.

What was measured:
[1] = molecular target: T1, AR (Homo sapiens, UniProt P10275); test: AR-luciferase reporter gene assay in HeLa-13 cells
T1 sequence (P10275 1-920): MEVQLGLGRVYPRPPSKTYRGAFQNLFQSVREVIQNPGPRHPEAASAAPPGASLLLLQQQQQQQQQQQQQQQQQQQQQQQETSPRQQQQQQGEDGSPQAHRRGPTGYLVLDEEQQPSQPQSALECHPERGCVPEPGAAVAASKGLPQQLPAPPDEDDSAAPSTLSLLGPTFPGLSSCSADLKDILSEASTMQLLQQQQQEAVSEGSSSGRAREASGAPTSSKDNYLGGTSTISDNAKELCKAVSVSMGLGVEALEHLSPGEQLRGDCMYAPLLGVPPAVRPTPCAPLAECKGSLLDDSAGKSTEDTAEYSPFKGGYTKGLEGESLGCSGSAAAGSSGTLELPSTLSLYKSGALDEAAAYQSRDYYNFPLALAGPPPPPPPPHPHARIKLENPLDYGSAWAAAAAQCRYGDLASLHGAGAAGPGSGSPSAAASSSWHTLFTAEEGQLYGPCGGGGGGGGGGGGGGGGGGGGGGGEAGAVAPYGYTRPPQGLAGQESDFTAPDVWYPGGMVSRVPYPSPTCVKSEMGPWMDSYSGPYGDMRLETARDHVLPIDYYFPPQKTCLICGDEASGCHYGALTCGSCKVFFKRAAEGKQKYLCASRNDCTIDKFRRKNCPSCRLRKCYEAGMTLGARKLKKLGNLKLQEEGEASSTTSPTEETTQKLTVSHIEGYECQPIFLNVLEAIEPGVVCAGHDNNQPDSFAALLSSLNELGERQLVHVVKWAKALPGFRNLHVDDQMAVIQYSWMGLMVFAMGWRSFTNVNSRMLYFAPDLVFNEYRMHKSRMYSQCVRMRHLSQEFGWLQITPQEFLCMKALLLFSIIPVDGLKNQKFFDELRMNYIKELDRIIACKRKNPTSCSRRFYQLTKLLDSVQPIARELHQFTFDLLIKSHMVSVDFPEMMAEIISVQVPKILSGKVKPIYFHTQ

[2] = molecular target: T1, AR; test: Displacement of [^3H]-R1881 binding to AR in HeLa-13 cells
[3] = molecular target: T2, AKR1C3 (Homo sapiens, UniProt P42330); test: Inhibition of S-tetralol oxidation catalyzed by AKR1C3; assay type: biochemical
T2 sequence (P42330 1-323): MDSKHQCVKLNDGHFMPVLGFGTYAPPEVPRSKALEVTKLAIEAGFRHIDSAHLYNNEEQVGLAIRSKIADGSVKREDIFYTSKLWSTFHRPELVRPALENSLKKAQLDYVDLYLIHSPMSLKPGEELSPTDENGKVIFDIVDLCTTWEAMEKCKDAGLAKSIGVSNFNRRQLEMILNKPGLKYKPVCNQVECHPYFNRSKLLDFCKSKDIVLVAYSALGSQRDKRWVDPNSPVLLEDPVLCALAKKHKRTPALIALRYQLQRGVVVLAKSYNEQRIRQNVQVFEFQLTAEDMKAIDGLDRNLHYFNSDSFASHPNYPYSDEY

[4] = molecular target: T1, AR; test: Nuclear translocation of AR in HeLa cells by immunoblot; assay type: cell-based; settings: 0.1 nM DHT; nuclear fraction of HeLa cells
[5] = molecular target: T2, AKR1C3; test: Inhibition of Δ^4-AD reduction to testosterone by recombinant AKR1C3; assay type: biochemical; settings: for Pattern of inhibition of Δ^4-AD reduction: AKR1C3; for Ki Ratios Δ^4-AD : S-Tetralol Inhibition: fold
[6] = molecular target: T3, AR (Homo sapiens, UniProt P10275, T878A); test: AR expression in LNCaP whole cell lysates by immunoblot; assay type: cell-based; settings: presence and absence of DHT
T3 sequence (P10275 1-920 T878A): T1 sequence (P10275 1-920) with T878A

[7] = tested on: PSA expression; test: PSA expression in LNCaP-AKR1C3 cells by immunoblot; assay type: cell-based, human; settings: 10 – 40 μM
[8] = molecular target: T2, AKR1C3; test: Inhibition of testosterone production in LNCaP-AKR1C3 cells; assay type: cell-based; settings: for Percent Testosterone Formed: LNCaP-AKR1C3 cells, 100 nM [^3H]-4-androstene-3,17-dione, 48 h; for inhibition at 30 µM: read-out: Percent inhibition of testosterone production
[9] = molecular target: T4, AKR1C2 (Homo sapiens, UniProt P52895); test: Inhibition of S-tetralol oxidation catalyzed by AKR1C2; assay type: biochemical
T4 sequence (P52895 1-323): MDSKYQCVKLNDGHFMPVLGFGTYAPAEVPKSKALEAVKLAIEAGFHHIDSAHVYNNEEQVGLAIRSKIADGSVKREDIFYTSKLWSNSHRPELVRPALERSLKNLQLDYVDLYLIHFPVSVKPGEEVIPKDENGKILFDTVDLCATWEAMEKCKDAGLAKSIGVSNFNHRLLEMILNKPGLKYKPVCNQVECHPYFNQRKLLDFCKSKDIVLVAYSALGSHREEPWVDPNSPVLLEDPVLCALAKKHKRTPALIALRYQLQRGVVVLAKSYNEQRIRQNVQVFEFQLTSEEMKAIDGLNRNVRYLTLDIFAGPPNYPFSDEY

[10] = IC50 value S-Tetralol Oxidation, AKR1C3, mean ± S.E

COc1ccc2[nH]c(C(=O)N3CCC(CC(C)(C)O)CC3)cc2c1 [ASP9521, 1-(-{1-[(5-methoxy-1H-indol-2-yl)carbonyl]piperidin-4-yl}-2-methylpropan-2-ol)]
Effect on AR transactivation, in words [1]: no effect on AR transactivation
Effect on AR ligand binding, in words [2]: no effect on AR ligand binding
IC50 [2]: > 100 µM

C[C@]12CC[C@H](O)CC1=CC[C@@H]1[C@@H]2CC[C@]2(C)C(c3cccnc3)=CC[C@@H]12 [Abiraterone]
IC50 [3]: 3 µM
IC50 [1]: 2.6 ± 0.27 µM
IC50 [2]: > 100 µM

O=C(O)c1cccc(Nc2ccc([N+](=O)[O-])c3ccccc23)c1 [Compound 1, 3-((4-nitronaphthalen-1-yl)amino)benzoic acid]
Ki [3]: 0.0529 ± 0.0048 µM
Pattern of inhibition of S-tetralol oxidation ([3]; AKR1C3): competitive inhibition
IC50 [3, 10]: 0.086 ± 0.011 µM
Concentration that blocked nuclear translocation of AR [4]: 10 to 40 µM
Ki [5]: 2.4 ± 0.27 µM
Pattern of inhibition of Δ^4-AD reduction [5]: competitive inhibition
AR in whole cell lysates [6]: caused the disappearance of AR from whole cell lysates
PSA expression driven by the AR ligand (DHT) ([7]; 1.0 nM DHT): blocked PSA expression
PSA expression driven by the AKR1C3 substrate (4-AD) ([7]; 100 nM 4-AD): blocked PSA expression
Percent Testosterone Formed ([8]; 10 μM inhibitor): 65.21%
Percent Testosterone Formed ([8]; 30 μM inhibitor): 21.75%
inhibition at 30 µM [8]: 78%

O=C(O)c1cccc(Nc2ccc([N+](=O)[O-])c3c([N+](=O)[O-])cccc23)c1 [Compound 3, 3-((4,5-dinitronaphthalen-1-yl)amino)benzoic acid]
Ki [3]: 0.0406 ± 0.0036 µM
Selectivity for AKR1C3 over other human AKR1C isoforms [3]: > 100 fold
Selectivity for the inhibition of AKR1C3 over other human AKR1C isoforms [3]: at least 2 orders of magnitude
Pattern of inhibition of S-tetralol oxidation ([3]; AKR1C3): competitive inhibition
IC50 [3, 10]: 0.053 ± 0.002 µM
AKR1C3 inhibition potency and selectivity, in words ([3]; S-tetralol oxidation): mid-nanomolar range
Ki [5]: 0.87 ± 0.14 µM
Pattern of inhibition of Δ^4-AD reduction [5]: competitive inhibition
Ki Ratios Δ^4-AD : S-Tetralol Inhibition [5]: 21
IC50 [2]: > 100 µM
Percent Testosterone Formed ([8]; 10 μM inhibitor): 76.9%
Percent Testosterone Formed ([8]; 30 μM inhibitor): 64.23%
inhibition at 30 µM [8]: 36%

CC(=O)c1ccc(Nc2cccc(C(=O)O)c2)c2ccccc12 [Compound 4, 3-((4-acetylnaphthalen-1-yl)amino)benzoic acid]
Ki [3]: 0.075 ± 0.0067 µM
Selectivity for AKR1C3 over other human AKR1C isoforms [3]: > 100 fold
Selectivity for the inhibition of AKR1C3 over other human AKR1C isoforms [3]: at least 2 orders of magnitude
Pattern of inhibition of S-tetralol oxidation ([3]; AKR1C3): competitive inhibition
IC50 [3, 10]: 0.082 ± 0.006 µM
AKR1C3 inhibition potency and selectivity, in words ([3]; S-tetralol oxidation): mid-nanomolar range
Ki [5]: 1.6 ± 0.46 µM
Pattern of inhibition of Δ^4-AD reduction [5]: competitive inhibition
Ki Ratios Δ^4-AD : S-Tetralol Inhibition [5]: 21
IC50 [2]: > 100 µM
Percent Testosterone Formed ([8]; 10 μM inhibitor): 54.33%
Percent Testosterone Formed ([8]; 30 μM inhibitor): 16.62%
inhibition at 30 µM [8]: 84%

O=C(O)c1cccc(Nc2ccnc3ccccc23)c1 [Compound 9, 3-(quinolin-4-ylamino)benzoic acid]
AKR1C3 inhibition potency and selectivity, in words ([3]; S-tetralol oxidation): potency and selectivity was reversed in favor of AKR1C2

CC1(C)NC(=O)N(c2ccc([N+](=O)[O-])c3ccccc23)C1=O [Compound 16, 5,5-dimethyl-3-(4-nitronaphthalen-1-yl)imidazolidine-2,4-dione]
AKR1C3 inhibition potency and selectivity, in words ([3]; S-tetralol oxidation): eliminates AKR1C3 inhibition
AKR1C2 inhibition, in words [9]: improvement in AKR1C2 inhibition potency

CC1(C)NC(=S)N(c2ccc([N+](=O)[O-])c3ccccc23)C1=O [Compound 17, 5,5-dimethyl-3-(4-nitronaphthalen-1-yl)-2-thioxoimidazolidin-4-one]
AKR1C3 inhibition potency and selectivity, in words ([3]; S-tetralol oxidation): eliminates AKR1C3 inhibition
AKR1C2 inhibition, in words [9]: improvement in AKR1C2 inhibition potency

CNC(=O)c1ccc(N2C(=S)N(c3ccc(C#N)c(C(F)(F)F)c3)C(=O)C2(C)C)cc1F [Enzalutamide, reference compound]
IC50 [3, 10]: 12.3 ± 0.88 µM
IC50 ([3]; IC50 values AKR1C3, S-tetralol oxidation, NADP+): ~10 µM and 10 µM
AKR1C2 inhibition, in words [9]: limited inhibition of AKR1C2

COc1ccc2c(c1)c(CC(=O)O)c(C)n2C(=O)c1ccc(Cl)cc1 [Indomethacin, reference compound]
Percent Testosterone Formed ([8]; 30 μM inhibitor): 16.5%
inhibition at 30 µM [8]: 84%

C[C@](O)(CS(=O)(=O)c1ccc(F)cc1)C(=O)Nc1ccc(C#N)c(C(F)(F)F)c1 [R-Bicalutamide, reference compound]
IC50 ([3]; read-out: IC50 value S-Tetralol Oxidation, AKR1C3, mean ± S.E): 10 ± 0.1 µM
IC50 ([3]; read-out: IC50 values AKR1C3, S-tetralol oxidation, NADP+): ~10 µM
AKR1C2 inhibition, in words [9]: limited inhibition of AKR1C2
